Test results as given in US11760722B2 (priority 2022, dated 2023).
“And” between values parts separate entries of the source, which are not always exact repeats. Equal entries are not always repeated. Where two headings read alike, the source gives them in different places.

Tests used:
[1] = tested on: SARS-CoV-2 replicon; test: microbe, parasite or virus in culture; type: cell-based; settings: read-out: Replicon EC50
[2] = tested on: human coronavirus (HCoV) 229E; test: microbe, parasite or virus in culture; type: cell-based, human coronavirus 229E; settings: MRCS cells, HCoV 229E, 3 days, CellTiter Glo, read-out: 229E CPE EC50
[3] = Severe acute respiratory syndrome coronavirus 2, Huh-7, 24 h
[4] = unidentified human coronavirus, 72 h

Row | Structure (SMILES) | EC50 [1, 3] | EC50 [1] | EC50 [2] | EC50 [2, 4]
1 | CC(C)(C)[C@H](NS(=O)(=O)c1ccc(F)c(F)c1)C(=O)N1C[C@H]2[C@@H]([C@H]1C(=O)N[C@H](C#N)C[C@@H]1CCNC1=O)C2(C)C [Compound 99] | 0.088 µM | 0.1 µM | 0.344 µM | 0.271 µM
2 | CC(C)(C)[C@H](NC(=O)c1ccc2ccccc2c1)C(=O)N1C[C@H]2[C@@H]([C@H]1C(=O)N[C@H](C#N)C[C@@H]1CCNC1=O)C2(C)C [Compound 106] | 0.86 µM |  |  | 4.02 µM
3 | CC(C)(C)[C@H](NC(=O)CC12CC(C1)C2)C(=O)N1C[C@H]2[C@@H]([C@H]1C(=O)N[C@H](C#N)C[C@@H]1CCNC1=O)C2(C)C [Compound 40] | 0.27 µM | 0.32 µM and 0.36 µM and 0.39 µM | 3.26 µM | 3.12 µM
4 | CC(C)(C)[C@H](NC(=S)N1CCCCC1)C(=O)N1C[C@H]2[C@@H]([C@H]1C(=O)N[C@H](C#N)C[C@@H]1CCNC1=O)C2(C)C [Compound 109] | 0.875 µM |  |  | 0.985 µM
5 | CC(C)(C)[C@H](NC(=O)C12CC(C(F)(F)F)(C1)C2)C(=O)N1C[C@H]2[C@@H]([C@H]1C(=O)N[C@H](C#N)C[C@@H]1CCNC1=O)C2(C)C [Compound 81] | 1.99 µM |  |  | 6.86 µM
6 | Cc1c(C)c(C)c(S(=O)(=O)N[C@H](C(=O)N2C[C@H]3[C@@H]([C@H]2C(=O)N[C@H](C#N)C[C@@H]2CCNC2=O)C3(C)C)C(C)(C)C)c(C)c1C [Compound 142] | 0.16 µM | 0.17 µM |  | 0.283 µM
7 | CC(C)(C)[C@H](NC(=O)NC1(CS(=O)(=O)C(C)(C)C)CCCCC1)C(=O)N1C[C@H]2[C@@H]([C@H]1C(=O)N[C@H](C#N)C[C@@H]1CCNC1=O)C2(C)C [Compound 16] | 1.29 µM | 1.88 µM and 2.04 µM |  | 16.8 µM
8 | CC(C)(C)[C@H](NS(=O)(=O)c1ccc2c(c1)CCO2)C(=O)N1C[C@H]2[C@@H]([C@H]1C(=O)N[C@H](C#N)C[C@@H]1CCNC1=O)C2(C)C [Compound 83] | 0.044 µM | 0.072 µM | 1.06 µM | 0.838 µM
9 | CC(C)(C)[C@H](NC(=S)NC1CC1)C(=O)N1C[C@H]2[C@@H]([C@H]1C(=O)N[C@H](C#N)C[C@@H]1CCNC1=O)C2(C)C [Compound 76] | 0.38 µM | 0.48 µM | 7.55 µM | 6.32 µM
10 | CC(C)(C)[C@H](NC(=S)NC1CCCC1)C(=O)N1C[C@H]2[C@@H]([C@H]1C(=O)N[C@H](C#N)C[C@@H]1CCNC1=O)C2(C)C [Compound 70] | 1.79 µM |  |  | 4.99 µM
11 | C=CS(=O)(=O)N[C@H](C(=O)N1C[C@H]2[C@@H]([C@H]1C(=O)N[C@H](C#N)C[C@@H]1CCNC1=O)C2(C)C)C(C)(C)C [Compound 84] | 0.29 µM |  |  | 0.91 µM
12 | CC(C)(C)[C@H](NC(=O)CC#N)C(=O)N1C[C@H]2[C@@H]([C@H]1C(=O)N[C@H](C#N)C[C@@H]1CCNC1=O)C2(C)C [Compound 33] |  |  | 18 µM | 17.8 µM
13 | CC1(C)[C@@H]2[C@@H](C(=O)N[C@H](C#N)C[C@@H]3CCNC3=O)N(C(=O)[C@@H](NC(=O)C(F)(F)F)c3ccc(F)cc3)C[C@@H]21 [Compound 105] | 0.65 µM |  |  | 6.18 µM
14 | CNC(=S)N[C@H](C(=O)N1C[C@H]2[C@@H]([C@H]1C(=O)N[C@H](C#N)C[C@@H]1CCNC1=O)C2(C)C)C(C)(C)C [Compound 35] |  |  |  | 4.96 µM
15 | Cc1ccc(S(=O)(=O)N[C@H](C(=O)N2C[C@H]3[C@@H]([C@H]2C(=O)N[C@H](C#N)C[C@@H]2CCNC2=O)C3(C)C)C(C)(C)C)s1 [Compound 118] |  |  |  | 0.322 µM
16 | C=C(F)C(=O)N[C@H](C(=O)N1C[C@H]2[C@@H]([C@H]1C(=O)N[C@H](C#N)C[C@@H]1CCNC1=O)C2(C)C)C(C)(C)C [Compound 66] |  |  | 1.4 µM | 1.08 µM
17 | Cc1ccc(S(=O)(=O)N[C@H](C(=O)N2C[C@H]3[C@@H]([C@H]2C(=O)N[C@H](C#N)C[C@@H]2CCNC2=O)C3(C)C)C(C)(C)C)cc1 [Compound 96] |  |  | 0.339 µM | 0.246 µM
18 | CC(C)(C)[C@H](NS(=O)(=O)c1ccc2ccccc2c1)C(=O)N1C[C@H]2[C@@H]([C@H]1C(=O)N[C@H](C#N)C[C@@H]1CCNC1=O)C2(C)C [Compound 102] |  |  | 0.125 µM | 0.084 µM
19 | CC(C)(C)[C@H](NS(=O)(=O)c1cccc2ccccc12)C(=O)N1C[C@H]2[C@@H]([C@H]1C(=O)N[C@H](C#N)C[C@@H]1CCNC1=O)C2(C)C [Compound 85] |  |  | 0.368 µM | 0.238 µM
20 | COc1ccc(S(=O)(=O)N(C)[C@H](C(=O)N2C[C@H]3[C@@H]([C@H]2C(=O)N[C@H](C#N)C[C@@H]2CCNC2=O)C3(C)C)C(C)(C)C)cc1 [Compound 137] |  |  |  | 4.84 µM
21 | CC(C)(C)[C@H](NS(=O)(=O)N1CCOCC1)C(=O)N1C[C@H]2[C@@H]([C@H]1C(=O)N[C@H](C#N)C[C@@H]1CCNC1=O)C2(C)C [Compound 49] |  |  | 5.78 µM | 3.88 µM
22 | CC(C)(C)[C@H](NS(=O)(=O)c1cccs1)C(=O)N1C[C@H]2[C@@H]([C@H]1C(=O)N[C@H](C#N)C[C@@H]1CCNC1=O)C2(C)C [Compound 100] |  |  | 0.636 µM | 0.432 µM
23 | CC(C)(C)[C@H](NC(=O)C(F)(F)C(F)(F)C(F)(F)F)C(=O)N1C[C@H]2[C@@H]([C@H]1C(=O)N[C@H](C#N)C[C@@H]1CCNC1=O)C2(C)C [Compound 133] |  |  | 0.16 µM and 0.164 µM | 0.122 µM
24 | CN(C)S(=O)(=O)N[C@H](C(=O)N1C[C@H]2[C@@H]([C@H]1C(=O)N[C@H](C#N)C[C@@H]1CCNC1=O)C2(C)C)C(C)(C)C [Compound 47, (1R,2S,5S)—N—((S)-1-cyano-2-((S)-2-oxopyrrolidin-3-yl)ethyl)-3-((S)-2-((N,N-dimethylsulfamoyl)amino)-3,3-dimethylbutanoyl)-6,6-dimethyl-3-azabicyclo[3.1.0]hexane-2-carboxamide] |  |  | 7.32 µM | 6.19 µM
25 | CC(C)(C)[C@H](NS(=O)(=O)c1cccnc1)C(=O)N1C[C@H]2[C@@H]([C@H]1C(=O)N[C@H](C#N)C[C@@H]1CCNC1=O)C2(C)C [Compound 93] |  |  | 4.38 µM | 3.06 µM
26 | CC(C)(C)[C@H](NS(=O)(=O)c1ccc(F)s1)C(=O)N1C[C@H]2[C@@H]([C@H]1C(=O)N[C@H](C#N)C[C@@H]1CCNC1=O)C2(C)C [Compound 113] |  |  |  | 0.388 µM
27 | CC(C)(C)[C@H](NC(=O)C(Cl)(Cl)C(F)(F)F)C(=O)N1C[C@H]2[C@@H]([C@H]1C(=O)N[C@H](C#N)C[C@@H]1CCNC1=O)C2(C)C [Compound 71] |  |  | 0.321 µM | 0.302 µM
28 | CCNC(=S)N[C@H](C(=O)N1C[C@H]2[C@@H]([C@H]1C(=O)N[C@H](C#N)C[C@@H]1CCNC1=O)C2(C)C)C(C)(C)C [Compound 72] |  |  | 0.89 µM | 0.718 µM
29 | CC(C)(C)[C@H](NS(=O)(=O)c1ccc(C2CC2)cc1)C(=O)N1C[C@H]2[C@@H]([C@H]1C(=O)N[C@H](C#N)C[C@@H]1CCNC1=O)C2(C)C [Compound 121] |  |  | 0.066 µM | 0.056 µM
